Laboratory results: patent publication US7919517B2, “Indazole derivatives” (Kyowa Hakko Kirin Co., Ltd., priority 2003, dated 2011)
Structures can show the parent of a compound that is named as a salt.

Tests used:
Type in all cases: cell-based
[1] = tested on: human acute myeloid leukemia cell line MV-4-11; test: Cytostatic activity on leukemia cell line MV-4-11 (WST-1); details: 72 hours, MV-4-11 cells; for inhibition at 10 µM: Homo sapiens, MV4-11, 10 μmol/L, read-out: cytostatic rate MV-4-11 (%) (10 μmol/L)
Experimental: (§1) The cytostatic rates of a test compound on human acute myeloid leukemia cell lines MV-4-11 and ML-1, and human chronic myeloid leukemia cell line K562 were determined in the following manner.
(§2) Each cell was cultured using Roswell Park Memorial Institute's Medium (RPMI) 1640 (Gibco, Catalog No. 11875-093) containing 10% fetal bovine serum (Gibco, Catalog No. 10437-028) and 1% penicillin/streptomycin (1:1) (Gibco, Catalog No. 15140-122). Each 80 μL of the MV-4-11 cell having a concentration of 7.5×10^4 cells/mL (or the ML-1 cell or K562 cell having a concentration of 2.5×10^4 cells/mL) was inoculated to wells of a TC MICROWELL 96U plate (Nalge Nunc International, Catalog No. 163320) and was cultured in a 5% carbon dioxide gas incubator at 37° C. for 4 hours. As a blank, only RPMI medium (80 μL) was added to a well. Each 20 μL of a solution of the test compound in dimethyl sulfoxide (DMSO) which was prepared to make the final concentration to 10 μmol/L, was added to the MV-4-11 cell, ML-1 cell and K562 cell, respectively. Each 20 μL of DMSO was added to the control well and the blank well to […]. After adding the test compound, the cells were incubated in a 5% carbon dioxide gas incubator at 37° C. for 72 hours. After adding 20 μL of WST-1 reagent {4-[3-(4-iodophenyl)-2-(4-nitrophenyl)-2H-5-tetrazolio]-1,3-benzene disulfonate sodium salt} (Roche Diagnostics K.K., Catalog No. 1644807) diluted to 50% with RPMI medium, the cells were further incubated at 37° C. for 2 hours. Then, the absorbances at 450 nm (reference wavelength: 690 nm) were determined with a microplate spectrophotometer SPECTRA max 340PC (Molecular Devices Corporation). The relative growth (%) of a well to which the test compound had been added was determined while setting the absorbance of a well to which not the test compound but DMSO alone had been added (control) at 100% and that of a well containing RPMI medium alone at 0%. The cytostatic rate (%) of the test compound was determined by subtracting the calculated relative growth from 100.

[2] = tested on: human acute myeloid leukemia cell line ML-1; test: Cytostatic activity on leukemia cell line ML-1 (WST-1); details: 72 hours, ML-1 cells; for inhibition at 10 µM: Homo sapiens, ML1, 10 μmol/L, read-out: cytostatic rate ML-1 (%) (10 μmol/L)
Experimental: as §1, §2

[3] = tested on: human chronic myeloid leukemia cell line K562; test: Cytostatic activity on leukemia cell line K562 (WST-1); details: 72 hours, K562 cells; for inhibition at 10 µM: Homo sapiens, 10 μmol/L, read-out: cytostatic rate K562 (%) (10 μmol/L)
Experimental: as §1, §2

[4] = tested on: human colon cancer cell line Colo205; test: Cytostatic activity on solid carcinoma cell line Colo205 (WST-1); details: 72 hours, Colo205 cells; for inhibition at 10 µM: Homo sapiens, COLO 205, 10 μmol/L, read-out: cytostatic rate Colo205 (%) (10 μmol/L)
Experimental: as §2
The cytostatic rate of a test compound on the human colon cancer cell line Colo205 was determined in the following manner.
The cell was cultured using Roswell Park Memorial Institute's Medium (RPMI) 1640 (Gibco, Catalog No. 11875-093) containing 10% fetal bovine serum (Gibco, Catalog No. 10437-028) and 1% penicillin/streptomycin (1:1) (Gibco, Catalog No. 15140-122). Each 80 μL of the Colo205 having a concentration of 1.25×10^4 cells/mL was inoculated to wells of a TC MICROWELL 96F plate (Nalge Nunc International, Catalog No. 167008) and was cultured in a 5% carbon dioxide gas incubator at 37° C. for 24 hours. As a blank, only RPMI (80 μL) was added to a well. Each 20 μL of a solution of the test compound in DMSO which was prepared to make the final concentration to 10 μmol/L, was added to the Colo205 cell. Each 20 μL of DMSO was added to the control well and the blank well to […]. After adding the test compound, the cell was incubated in a 5% carbon dioxide gas incubator at 37° C. for 72 hours. The cytostatic rate (%) was then determined in the same way as the leukemia cell lines.

Row | Compound | inhibition at 10 µM [1] [%] | inhibition at 10 µM [2] [%] | inhibition at 10 µM [3] [%] | inhibition at 10 µM [4] [%] | cytostatic rate MV-4-11 (%) (10 μmol/L) [1] | cytostatic rate ML-1 (%) (10 μmol/L) [2] | cytostatic rate K562 (%) (10 μmol/L) [3] | cytostatic rate Colo205 (%) (10 μmol/L) [4]
1 | O=C(c1ccc(/C=C/c2n[nH]c3ccccc23)cc1)N1CCCNCC1 [Compound 85, (E)-1-{4-[2-(1H-indazol-3-yl)vinyl]benzoyl}homopiperazine dihydrochloride] | 99 | 78 | 90 | 89 |  |  |  | 
2 | O=C(c1ccc(/C=C/c2n[nH]c3ccccc23)cc1)N1CCN(C(=O)N2CCOCC2)CC1 [Compound 41, (E)-1-{4-[2-(1H-indazol-3-yl)vinyl]benzoyl}-4-(morpholinocarbonyl)piperazine] | 97 | 83 | 95 | 90 |  |  |  | 
3 | O=C(NC1CCN(C(=O)c2ccc(/C=C/c3n[nH]c4ccccc34)cc2)CC1)N1CCOCC1 [Compound 99, (E)-1-{4-[2-(1H-indazol-3-yl)vinyl]benzoyl}-4-(morpholinocarbonylamino)piperidine] | 97 | 86 | 94 | 95 |  |  |  | 
4 | NCC(=O)N1CCN(C(=O)c2ccc(/C=C/c3n[nH]c4ccccc34)cc2)CC1 [Compound 61, (E)-4-aminoacetyl-1-{4-[2-(1H-indazol-3-yl)vinyl]benzoyl}piperazine hydrochloride] | 98 | 79 | 85 | 87 |  |  |  | 
5 | Cc1cc(/C=C/c2n[nH]c3ccccc23)ccc1C(=O)N1CCNCC1 [Compound 95, (E)-1-{4-[2-(1H-indazol-3-yl)vinyl]-2-methylbenzoyl}piperazine dihydrochloride] | 96 | 70 | 93 | 86 |  |  |  | 
6 | O=CN1CCN(C(=O)c2ccc(/C=C/c3n[nH]c4ccccc34)cc2)CC1 [Compound 19, (E)-4-{4-[2-(1H-indazol-3-yl)vinyl]benzoyl}piperazine-1-carbaldehyde] | 97 | 89 | 78 | 89 |  |  |  | 
7 | O=C(c1ccc(/C=C/c2n[nH]c3ccccc23)cc1)N1CCN(c2c(N3CCOCC3)c(=O)c2=O)CC1 [Compound 156, (E)-3-morpholino-4-{[4-(2-(1H-indazol-3-yl)vinyl)benzoyl]piperazin-1-yl}-3-cyclobutene-1,2-dione] |  |  |  |  | 99 | 85 | 94 | 92
8 | CC(C)(N)C(=O)N1CCN(C(=O)c2ccc(/C=C/c3n[nH]c4ccccc34)cc2)CC1 [Compound 131, (E)-4-(2-amino-2-methylpropionyl)-1-{4-[2-(1H-indazol-3-yl)vinyl]benzoyl}piperazine dihydrochloride] | 99 | 85 | 98 | 91 |  |  |  | 
9 | CN1CCCC1C(=O)N1CCN(C(=O)c2ccc(/C=C/c3n[nH]c4ccccc34)cc2)CC1 (stereo not drawn) [Compound 145, (E)-4-[(1-methylpyrrolidin-2-yl)carbonyl]-1-{4-[2-(1H-indazol-3-yl)vinyl]benzoyl}piperazine] | 99 | 85 | 94 | 92 |  |  |  | 
10 | CCN(CC)CCNC(=O)c1ccc(/C=C/c2n[nH]c3ccccc23)cc1 [Compound 63, (E)-N-[2-(diethylamino)ethyl]-4-[2-(1H-indazol-3-yl)vinyl]benzamide] | 98 | 87 | 76 | 88 |  |  |  | 
11 | N[C@@H]1CCN(C(=O)c2ccc(/C=C/c3n[nH]c4ccccc34)cc2)C1 [Compound 158, (R)-(E)-1-{4-[2-(1H-Indazol-3-yl)vinyl]benzoyl}-3-aminopyrrolidine] | 98 | 80 | 90 | 91 |  |  |  | 
12 | CC(C)CC(=O)N1CCN(C(=O)c2ccc(/C=C/c3n[nH]c4ccccc34)cc2)CC1 [Compound 66, (E)-4-(3-methylbutyryl)-1-{4-[2-(1H-indazol-3-yl)vinyl]benzoyl}piperazine] | 99 | 74 | 89 | 83 |  |  |  | 
13 | O=C(c1ccc(/C=C/c2n[nH]c3ccccc23)cc1)N1CCN(c2c(N3CCCCC3)c(=O)c2=O)CC1 [Compound 155, (E)-3-piperidino-4-{[4-(2-(1H-indazol-3-yl)vinyl)benzoyl]piperazin-1-yl}-3-cyclobutene-1,2-dione] |  |  |  |  | 97 | 79 | 96 | 88
14 | O=C(c1ccncc1)N1CCN(C(=O)c2ccc(/C=C/c3n[nH]c4ccccc34)cc2)CC1 [Compound 44, (E)-1-{4-[2-(1H-indazol-3-yl)vinyl]benzoyl}-4-(isonicotinoyl)piperazine] | 98 | 85 | 92 | 91 |  |  |  | 
15 | O=C(c1ccc(/C=C/c2n[nH]c3ccccc23)cc1)N1CCC(O)CC1 [Compound 87, (E)-1-{4-[2-(1H-indazol-3-yl)vinyl]benzoyl}-4-hydroxypiperidine] | 99 | 88 | 76 | 86 |  |  |  | 
16 | O=C(c1ccc(/C=C/c2n[nH]c3ccccc23)cc1)N1CCC(N2CCOCC2)CC1 [Compound 106, (E)-1-{4-[2-(1H-indazol-3-yl)vinyl]benzoyl}-4-morpholinopiperidine] | 98 | 58 | 35 | 37 |  |  |  | 
17 | CC(C)(C)CC(=O)N1CCN(C(=O)c2ccc(/C=C/c3n[nH]c4ccccc34)cc2)CC1 [Compound 78, (E)-4-(3,3-dimethylbutyryl)-1-{4-[2-(1H-indazol-3-yl)vinyl]benzoyl}piperazine] | 98 | 64 | 90 | 82 |  |  |  | 
18 | O=C(NN1CCN(C(=O)c2ccc(/C=C/c3n[nH]c4ccccc34)cc2)CC1)N1CCOCC1 [Compound 150, (E)-1-{4-[2-(1H-indazol-3-yl)vinyl]benzoyl}-4-(morpholinocarbonylamino)piperazine] | 97 | 67 | 90 | 88 |  |  |  | 
19 | O=C(c1ccc(/C=C/c2n[nH]c3ccccc23)cc1)N1CCNCC1 [Compound 18, (E)-1-{4-[2-(1H-indazol-3-yl)vinyl]benzoyl}piperazine] | 98 | 76 | 91 | 85 |  |  |  | 
20 | CN(C)C(=O)C1CCN(C(=O)c2ccc(/C=C/c3n[nH]c4ccccc34)cc2)CC1 [Compound 92, (E)-N,N-dimethyl-1-{4-[2-(1H-indazol-3-yl)vinyl]benzoyl}piperidine-4-carboxamide] | 98 | 88 | 89 | 89 |  |  |  | 
21 | O=C(c1ccc(/C=C/c2n[nH]c3ccccc23)cc1)N1CCN(CCO)CC1 [Compound 105, (E)-1-{4-[2-(1H-indazol-3-yl)vinyl]benzoyl}-4-(2-hydroxyethyl)piperazine] | 96 | 85 | 90 | 88 |  |  |  | 
